This assay addresses TBK1 (Homo sapiens (Human), UniProt Q9UHD2). As to the kind of experiment: TBK1 low ATP kinase assay (in vitro assay 1). The assay is classed as biochemical.
[1] abbreviates: in vitro assay 1, read-out: TBK1 low ATP kinase assay IC50.
Where [2] appears, read: TBK1 low ATP kinase assay IC50, in vitro assay 1.

Like-named read-outs stand apart in the source and are kept apart here.

Sequence of TBK1 (Q9UHD2 whole entry): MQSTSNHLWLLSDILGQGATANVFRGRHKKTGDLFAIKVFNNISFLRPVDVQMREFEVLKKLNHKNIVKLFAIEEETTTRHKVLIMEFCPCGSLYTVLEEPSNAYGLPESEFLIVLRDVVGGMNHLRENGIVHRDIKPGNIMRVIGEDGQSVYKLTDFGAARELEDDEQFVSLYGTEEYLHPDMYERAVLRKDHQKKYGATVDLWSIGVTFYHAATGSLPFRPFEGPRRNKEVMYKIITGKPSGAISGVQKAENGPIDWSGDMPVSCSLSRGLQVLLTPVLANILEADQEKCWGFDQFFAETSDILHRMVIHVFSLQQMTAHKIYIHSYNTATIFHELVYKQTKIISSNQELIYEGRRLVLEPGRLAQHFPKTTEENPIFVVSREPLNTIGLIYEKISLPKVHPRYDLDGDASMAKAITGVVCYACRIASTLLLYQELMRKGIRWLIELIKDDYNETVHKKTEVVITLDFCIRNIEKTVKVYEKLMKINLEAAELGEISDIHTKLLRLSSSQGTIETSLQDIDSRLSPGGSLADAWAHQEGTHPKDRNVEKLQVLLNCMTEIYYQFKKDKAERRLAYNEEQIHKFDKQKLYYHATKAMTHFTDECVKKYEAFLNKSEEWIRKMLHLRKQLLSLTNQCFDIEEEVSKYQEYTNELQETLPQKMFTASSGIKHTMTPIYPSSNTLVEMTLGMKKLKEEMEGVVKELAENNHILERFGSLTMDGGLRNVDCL

As usually defined, the IC50 is the midpoint of a concentration-inhibition curve. Turning to `COc1cncnc1-c1ccc2nc(Nc3cc(CN4CCN(S(=O)(=O)N5CC(C)OC(C)C5)CC4)ccn3)[nH]c2c1` (stereo not shown) [Example 35.01.18, N-[4-({4-[(2,6-dimethylmorpholin-4-yl)sulfonyl]piperazin-1-yl}methyl)pyridin-2-yl]-6-(5-methoxypyrimidin-4-yl)-1H-benzimidazol-2-amine], the IC50 under setting [1] was found to be 41.8 nM.

In the case of `CC(c1ccnc(Nc2nc3ccc(-c4cc(C(F)(F)F)ncn4)cc3[nH]2)c1)N1CCN(C(=O)C2CC2)CC1` (racemic) [Example 29.01.02, (rac)-cyclopropyl(4-{1-[2-({6-[6-(trifluoromethyl)pyrimidin-4-yl]-1H-benzimidazol-2-yl}amino)pyridin-4-yl]ethyl}piperazin-1-yl)methanone], the IC50 under setting [1] turned out to be 3.47 nM. The same measure, in the same setting: the figure for `CC(c1ccnc(Nc2nc3ccc(-c4ccnn4C(C)C)cc3[nH]2)c1)N1CCN(C(=O)C2CC2)CC1` (single isomer, unassigned) [Example 72.03, cyclopropyl(4-{(1R or 1S)-1-[2-({6-[1-(propan-2-yl)-1H-pyrazol-5-yl]-1H-benzimidazol-2-yl}amino)pyridin-4-yl]ethyl}piperazin-1-yl)methanone] is 100 nM; for `N#Cc1cc(-c2ccc3nc(Nc4cc(CN5CCN(C(=O)CC(F)(F)F)CC5)ccn4)[nH]c3c2)ncn1` [Example 77.01, 6-{2-[(4-{[4-(3,3,3-trifluoropropanoyl)piperazin-1-yl]methyl}pyridin-2-yl)amino]-1H-benzimidazol-6-yl}pyrimidine-4-carbonitrile] it is 9.2 nM; for `O=C(C1CC1)N1CCN(Cc2ccnc(Nc3nc4ccc(-c5ncnc(NCC6CC6)c5F)cc4[nH]3)c2)CC1` [Example 195.03, cyclopropyl[4-({2-[(6-{6-[(cyclopropylmethyl)amino]-5-fluoropyrimidin-4-yl}-1H-benzimidazol-2-yl)amino]pyridin-4-yl}methyl)piperazin-1-yl]methanone] it is 34.1 nM. Same read-out and setting: the figure for `COc1cc(-c2ccc3nc(Nc4cc(CN5CCN(C(=O)CC(F)(F)F)CC5)ccn4)[nH]c3c2)ncn1` [Example 163.02, 3,3,3-trifluoro-1-{4-[(2-{[6-(6-methoxypyrimidin-4-yl)-1H-benzimidazol-2-yl]amino}pyridin-4-yl)methyl]piperazin-1-yl}propan-1-one] is 19 nM. Take `COc1cncnc1-c1ccc2nc(Nc3cc(CN4CCN(S(=O)(=O)N(C)C)CC4)ccn3)[nH]c2c1` [Example 35.01.15, 4-[(2-{[6-(5-methoxypyrimidin-4-yl)-1H-benzimidazol-2-yl]amino}pyridin-4-yl)methyl]-N,N-dimethylpiperazine-1-sulfonamide]: the IC50 under setting [1] turned out to be 38 nM. The same measure, in the same setting: to `O=C(CC(F)(F)F)N1CCN(Cc2ccnc(Nc3nc4ccc(-c5ncnc(NC6CC6)c5F)cc4[nH]3)c2)CC1` [Example 192.02, 1-(4-{[2-({6-[6-(cyclopropylamino)-5-fluoropyrimidin-4-yl]-1H-benzimidazol-2-yl}amino)pyridin-4-yl]methyl}piperazin-1-yl)-3,3,3-trifluoropropan-1-one] belongs 18.3 nM. On the same count and under the same terms, to `COc1c(NCC2CC2)ncnc1-c1ccc2nc(Nc3cc(C(C)N4CCN(C(=O)C5CC5)CC4)ccn3)[nH]c2c1` (single isomer, unassigned) [Example 109.02.02, cyclopropyl{4-[(1R or 1S)-1-{2-[(6-{6-[(cyclopropylmethyl)amino]-5-methoxypyrimidin-4-yl}-1H-benzimidazol-2-yl)amino]pyridin-4-yl}ethyl]piperazin-1-yl}methanone] belongs 2 nM. For the compound `Cc1noc(-c2ccc3nc(Nc4cc(C(C)N5CCN(C(=O)CC(F)(F)F)CC5)ccn4)[nH]c3c2)n1` (racemic) [Example 16.05.02, (rac)-3,3,3-trifluoro-1-{4-[1-(2-{[6-(3-methyl-1,2,4-oxadiazol-5-yl)-1H-benzimidazol-2-yl]amino}pyridin-4-yl)ethyl]piperazin-1-yl}propan-1-one], the IC50 under setting [2] is 33 nM. In the case of `C[C@H](c1ccnc(Nc2nc3ccc(-c4cc(OCC(F)(F)F)ncn4)cc3[nH]2)c1)N1CCN(C(=O)CC(F)(F)F)CC1` [Example 119.02, 3,3,3-trifluoro-1-(4-{(1R)-1-[2-({6-[6-(2,2,2-trifluoroethoxy)pyrimidin-4-yl]-1H-benzimidazol-2-yl}amino)pyridin-4-yl]ethyl}piperazin-1-yl)propan-1-one], the concentration for half-maximal inhibition (IC50) under setting [1] was 6.69 nM. On the same count and under the same terms, to `COc1cncnc1-c1ccc2nc(Nc3cc(C(C)N4CCN(C(=O)CC5CC5)CC4)ccn3)[nH]c2c1` (single isomer, unassigned) [Example 35.03.02.A, 2-cyclopropyl-1-{4-[(1R or 1S)-1-(2-{[6-(5-methoxypyrimidin-4-yl)-1H-benzimidazol-2-yl]amino}pyridin-4-yl)ethyl]piperazin-1-yl}ethanone] belongs 8.33 nM. Still for that read-out and setting: to `COc1c(-c2ccc3nc(Nc4cc(C(C)N5CCN(C(=O)CC(F)(F)F)CC5)ccn4)[nH]c3c2)ncnc1N1CC(F)(F)C1` (single isomer, unassigned) [Example 113.02, 1-(4-{(1R or 1S)-1-[2-({6-[6-(3,3-difluoroazetidin-1-yl)-5-methoxypyrimidin-4-yl]-1H-benzimidazol-2-yl}amino)pyridin-4-yl]ethyl}piperazin-1-yl)-3,3,3-trifluoropropan-1-one] belongs 1.6 nM; to `CC(c1ccnc(Nc2nc3ccc(-c4cnn(CC5CC5(F)F)c4)c(F)c3[nH]2)c1)N1CCN(C(=O)C2CC2)CC1` (single isomer, unassigned) [Example 86.03, cyclopropyl{4-[(1R or 1S)-1-(2-{[6-(1-{[(1RS)-2,2-difluorocyclopropyl]methyl}-1H-pyrazol-4-yl)-7-fluoro-1H-benzimidazol-2-yl]amino}pyridin-4-yl)ethyl]piperazin-1-yl}methanone], 1.5 nM; to `CC(c1ccnc(Nc2nc3ccc(-c4cc(OCC(F)(F)C(F)(F)F)ncn4)cc3[nH]2)c1)N1CCN(C(=O)C2(C(F)(F)F)CC2)CC1` (single isomer, unassigned) [Example 166.04, (4-{(1R or 1S)-1[2-({6-[6-(2,2,3,3,3-pentafluoropropoxy)pyrimidin-4-yl]-1H-benzimidazol-2-yl}amino)pyridin-4-yl]ethyl}piperazin-1-yl)[1-(trifluoromethyl)cyclopropyl]methanone], 54.2 nM. Same read-out and setting: to `COCc1cc(-c2ccc3nc(Nc4cc(CN5CCN(C(=O)C6(C(F)(F)F)CC6)CC5)ccn4)[nH]c3c2)ncn1` [Example 79.03, (4-{[2-({6-[6-(methoxymethyl)pyrimidin-4-yl]-1H-benzimidazol-2-yl}amino)pyridin-4-yl]methyl}piperazin-1-yl)[1-(trifluoromethyl)cyclopropyl]methanone] belongs 3.3 nM; to `CC(C)Cc1noc(-c2ccc3nc(Nc4cc(CN5CCN(C(=O)C6CC6)CC5)ccn4)[nH]c3c2)n1` [Example 18.02, cyclopropyl(4-{[2-({6-[3-(2-methylpropyl)-1,2,4-oxadiazol-5-yl]-1H-benzimidazol-2-yl}amino)pyridin-4-yl]methyl}piperazin-1-yl)methanone], 154 nM; to `Cc1ncnc(-c2ccc3nc(Nc4cc(CN5CCN(C(=O)C6CC6)CC5)ccn4)[nH]c3c2)c1C` [Example 32.01, cyclopropyl{4-[(2-{[6-(5,6-dimethylpyrimidin-4-yl)-1H-benzimidazol-2-yl]amino}pyridin-4-yl)methyl]piperazin-1-yl}methanone], 951 nM.

For `CSc1ncc(-c2ccc3nc(Nc4cc(CN5CCN(C(=O)CC(F)(F)F)CC5)ccn4)[nH]c3c2)cn1` [Example 45.05.01, 3,3,3-trifluoro-1-(4-{[2-({6-[2-(methylsulfanyl)pyrimidin-5-yl]-1H-benzimidazol-2-yl}amino)pyridin-4-yl]methyl}piperazin-1-yl)propan-1-one], the concentration for half-maximal inhibition (IC50) under setting [1] worked out at 1430 nM. As for `Cc1nccc(-c2ccc3nc(Nc4cc(CN5CCN(C(=O)CC6CC6)CC5)ccn4)[nH]c3c2)n1` [Example 24.01.04, 2-cyclopropyl-1-{4-[(2-{[6-(2-methylpyrimidin-4-yl)-1H-benzimidazol-2-yl]amino}pyridin-4-yl)methyl]piperazin-1-yl}ethanone], under setting [1], the half-inhibitory concentration (IC50) stood at 44.4 nM.

In the case of `CCOc1nccc(-c2ccc3nc(Nc4cc(CN5CCN(C(=O)OC(C)(C)C)CC5)ccn4)[nH]c3c2)n1` [Example 26.01.01, tert-butyl 4-[(2-{[6-(2-ethoxypyrimidin-4-yl)-1H-benzimidazol-2-yl]amino}pyridin-4-yl)methyl]piperazine-1-carboxylate], under setting [1], the half-maximal inhibitory concentration (IC50) is 35.7 nM. Same read-out and setting: the figure for `O=C(CC(F)(F)F)N1CCN(Cc2ccnc(Nc3nc4ccc(-c5cc(NC6CC6)ncn5)cc4[nH]3)c2)CC1` [Example 151.02, 1-(4-{[2-({6-[6-(cyclopropylamino)pyrimidin-4-yl]-1H-benzimidazol-2-yl}amino)pyridin-4-yl]methyl}piperazin-1-yl)-3,3,3-trifluoropropan-1-one] is 2.1 nM. As to `CC(c1ccnc(Nc2nc3ccc(-c4cc(OCC5CC5)ncn4)cc3[nH]2)c1)N1CCN(C(=O)CC(F)(F)F)CC1` (single isomer, unassigned) [Example 85.03, 1-(4-{(1R or 1S)-1-[2-({6-[6-(cyclopropylmethoxy)pyrimidin-4-yl]-1H-benzimidazol-2-yl}amino)pyridin-4-yl]ethyl}piperazin-1-yl)-3,3,3-trifluoropropan-1-one], half-maximal inhibition under setting [2] (IC50) required 1.8 nM. Regarding `COc1cc(-c2ccc3nc(Nc4cc(C(C)N5CCN(C(=O)CC(F)(F)F)CC5)ccn4)[nH]c3c2)ncn1` (racemic) [Example 34.02.01, (rac)-3,3,3-trifluoro-1-{4-[1-(2-{[6-(6-methoxypyrimidin-4-yl)-1H-benzimidazol-2-yl]amino}pyridin-4-yl)ethyl]piperazin-1-yl}propan-1-one], the 50% inhibitory concentration (IC50) under setting [1] came out at 12.4 nM.

Regarding `O=C(C1CC1)N1CCN(Cc2ccnc(Nc3nc4ccc(-c5ncnc(NC6CC6)c5F)cc4[nH]3)c2)CC1` [Example 192.03, cyclopropyl(4-{[2-({6-[6-(cyclopropylamino)-5-fluoropyrimidin-4-yl]-1H-benzimidazol-2-yl}amino)pyridin-4-yl]mnethyl}piperazin-1-yl)methanone], under setting [1], the concentration for half-maximal inhibition (IC50) was 8.3 nM.

The record behind these values is patent publication US10894784B2, “Heteroarylbenzimidazole compounds” (BAYER PHARMA AKTIENGESELLSCHAFT, priority 2015, dated 2021).
